Test results reported in the METLIN SMRT retention time set (Domingo-Almenara et al. 2019).

Assay: gradient 5% acetonitrile 3 min, to 50% in 2 min, to 85% in 15 min, held 3 min, 100 µL/min
Details: column: Zorbax Extend-C18 2.1 x 50 mm; eluents: water / acetonitrile, 0.1% formic acid
Method in brief: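 Retention time was recorded from adduct peaks, which were picked computationally and each inspected manually. Pure standards ran in mixtures of ~100 molecules on HPLC coupled to a quadrupole time-of-flight mass spectrometer, in positive and negative ionization mode, through a Zorbax Extend-C18 column (2.1 × 50 mm, 1.8 μm) at 100 μL/min. Eluents were water and acetonitrile, each with 0.1% formic acid.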

Structure (SMILES) | RP-LC retention time [s]
CCC(c1cccs1)N1C(=O)[C@H]2CN(S(=O)(=O)c3cc(F)ccc3F)C[C@H]2C1=O (some centres undefined) | 936
O=C(c1cnccn1)N1CC(c2nc(CCOCC3CC3)no2)C1 | 691
CC1CCN(S(=O)(=O)c2ccc3c(c2)CCCC(=O)N3CC(=O)N2CCN(C)CC2)CC1 | 656
C=CCNS(=O)(=O)c1c(C)[nH]c(=O)[nH]c1=O | 582
COc1cccc(-c2noc(C3CCCN3C(=O)Nc3ccc(OC)cc3C)n2)c1 (centres undefined) | 900
CCCc1noc(-c2ccc(-n3cnc(C(=O)NC4CCCCCC4)c3)nc2)n1 | 1070
O=C(CN(CC1CCCO1)C(=O)c1ccc(Cl)cc1)N1CCNCC1 (centres undefined) | 605
CCCOc1nn(CCC)cc1C(=O)N1CCC(C(=O)OC)CC1 | 736
CN1CCC(OC2CCN(C(=O)CC3CCCC3)CC2)CC1 | 596
O=C(NCCN1CCN(C(=O)c2cc(=O)c3ccccc3o2)CC1)c1ccsc1 | 557
Cn1c(=O)sc2cc(S(=O)(=O)N3CCC(C(=O)NCc4ccc(F)cc4)CC3)ccc21 | 818
O=C(CN1C(=O)CN(C(=O)NCc2ccccc2)c2ccccc21)NCCc1ccco1 | 803
Cc1cc(NC(=O)CN2CCc3[nH]c4c(C)c(C)ccc4c(=O)c3C2)ccc1F | 626
Cc1nc(-c2cccc(NC(=O)CCCn3cnc(-c4ccc(F)cc4)cc3=O)c2)cs1 | 768
CCNC(=O)c1cc(N2CCCC2)nc2ccccc12 | 841
O=C(C1CCN(S(=O)(=O)c2ccc(-c3noc(C4CC4)n3)cc2)CC1)N1CCc2ccccc21 | 800
CCOc1ccc(CC(=O)NC2CCN(c3cc(-c4ccccc4)[nH]n3)C2)cc1OCC (centres undefined) | 721
O=S(=O)(Nc1ccc(Cl)cc1)c1ccc2nncn2c1 | 712
COc1ccc(CCNC(=O)C2CC(=O)N(c3n[nH]c4ccccc34)C2)cc1OC (centres undefined) | 657
O=C(Cc1nnc(-c2ccc3ncccc3c2)o1)Nc1ccc(F)cc1Cl | 730
CCCCN1C(=O)C(C)(C(=O)Nc2ccc(F)cc2F)Oc2cccnc21 (centres undefined) | 1050
COC(=O)c1cnc2nc(C)ccc2c1Nc1cc(F)ccc1F | 669
Cc1nc2cc(N3CCC(C(=O)Nc4ccc(N5CCOCC5)cc4)CC3)cnc2nc1C | 649

Structure (SMILES) | RP-LC retention time [s]
O=C(Cc1nc(-c2ccccn2)n[nH]1)Nc1cc(F)ccc1F | 652
Cn1c(=O)sc2cc(S(=O)(=O)N3CCC(C(=O)NCCc4cccs4)CC3)ccc21 | 813
Cn1c(=O)n(CC(=O)N2CCCCCC2)c(=O)c2cnc(-c3ccc(Cl)cc3)nc21 | 1120
CS(=O)(=O)N1CCc2cc(C(=O)N3CCC(C(N)=O)CC3)ccc21 | 583
Cc1nc(Cn2cccc2C(=O)Nc2ccccc2)no1 | 820
COc1cccc(CNC(=O)Nc2cccc(-c3ccc(N4CCOCC4)nn3)c2)c1 | 670
Cc1ccccc1-c1noc(Cn2c(=O)n(CC(C)C)c(=O)c3ccccc32)n1 | 1220
COc1cccc(CNC(=O)Cc2csc3nc(-c4ccc(OC)c(OC)c4)cn23)c1 | 698
CCOC(=O)C1=C(C)NC2=C(C(=O)CC(C)(C)C2)C1c1ccc([N+](=O)[O-])cc1 (centres undefined) | 832
O=C(c1ccc[nH]1)N1CCN(C(=O)c2ccco2)CC1 | 600
COc1ccc(OC)c(NC(=O)c2cc3c(=O)n(CC(C)C)c4ccccc4n3n2)c1 | 1240
O=C1c2ccccc2-c2c1c1ccccc1c(=O)n2Cc1ccccc1 | 1130
CCn1cc2c3c(cccc31)CN(C(=O)Nc1cc(C)ccc1OC)CC2 | 1080
C=CCNC(=O)N1CCCN(C2=NS(=O)(=O)C(c3ccc(C)c(C)c3)=C2C)CC1 | 770
CC(=O)c1ccc(NC(=O)c2cc(C)nc3ccccc23)cc1 | 644
CC(C)Oc1ccccc1CN1CC(c2nc(-c3ccncc3)nn2C)C1 | 590
CCOC(=O)C1=C(CN2CCC(C)CC2)NC(=O)NC1c1ccc(C)cc1 (centres undefined) | 656
CCCc1noc(-c2ccnc(-n3cnc(C(=O)N4CCOCC4)c3)c2)n1 | 747
O=C(c1ccc(Cl)cc1)N1CCN(c2cnn3cnnc3c2)CC1 | 634
O=S(=O)(c1ccc2nncn2c1)N(Cc1cc(F)cc(F)c1)c1ccccc1 | 861
Cn1c(=O)c2c3c(cnc2n(C)c1=O)C(=O)CC(c1cccc(Cl)c1)C3 (centres undefined) | 1020
Cc1[nH]nc(-c2cc(S(=O)(=O)NCCc3ccc(S(N)(=O)=O)cc3)c(C)s2)c1C | 699
O=C(NCCCN1CCOCC1)c1csc(N2CCN(c3ccccc3)CC2)n1 | 654

Structure (SMILES) | RP-LC retention time [s]
CCN(CC)c1ccc(NC(=O)C2C(=O)NC3(C)CC2c2ccccc2O3)c(C)c1 (centres undefined) | 640
Brc1ccc(OCc2nnc3sc(-c4ccccn4)nn23)cc1 | 960
COc1ccc(OC)c(NC(=O)Cn2c(C)cc(-c3nnc(C4CC4)o3)c2C)c1 | 830
O=C(Cc1cccs1)N1CCC(c2nc(-c3ccccc3)no2)C1 (centres undefined) | 883
CNC(=O)[C@@H]1C[C@H](Oc2cccnc2)CN1C(=O)c1ccc2ncccc2c1 | 510
CCc1cc(N2CCN(C(=O)COc3ccc(F)cc3)CC2)nc2nncn12 | 566
Cc1ccc(C)c(NC(=O)NC2CCN(c3ccc(F)c(C)c3)C2=O)c1 (centres undefined) | 891
COc1ccc(-c2cn3c(CC(=O)N4CCc5ccccc5C4)csc3n2)cc1OC | 754
COC(=O)c1nnn(-c2ccc(C(C)C)cc2)c1C(=O)OC | 996
CCOc1ccc(-c2ccc(=O)n(CCNC(=O)c3ccc(N(C)C)cc3)n2)cc1 | 732
CCc1nn(C)c(=O)c2cc(S(=O)(=O)N3CCC(Cc4ccccc4)CC3)cn12 | 1050
CSc1ccc(NC(=O)N2CCN(c3cnn4c(C5CC5)nnc4c3)CC2)cc1 | 668
CC(C)c1ccc(CNC(=O)c2ccc3ncnc(N4CCOCC4)c3c2)cc1 | 708
CCOC(=O)c1noc2nc(C)nc(N3CCN(c4ccccc4F)CC3)c12 | 1070
Cc1[nH]c(C(=O)N2CCC(CC(=O)NCCC3=CCCCC3)CC2)c(C)c1C | 910
O=C([C@@H]1C[C@H](F)CN1C(=O)c1ccccc1F)N1CCCCC1 | 677
COc1ccccc1Cc1nc(C2CC(=O)N(c3ccc(F)c(Cl)c3)C2)no1 (centres undefined) | 1020
O=C(CN1C(=O)C2CCCCC2C1=O)N1CCN(Cc2ccc3c(c2)OCO3)CC1 (centres undefined) | 603
C=CCNC(=O)c1cn(-c2cc(-c3nc(CC)no3)ccn2)cn1 | 646
N#Cc1cccc(NC(=O)Cc2csc3nc(-c4ccccc4)cn23)c1 | 782
CCCn1c(-c2cccc(C(=O)NCc3cccc(C(F)(F)F)c3)c2)nc2cccnc21 | 936
CCOC(=O)c1[nH]c(C)c(CCC(=O)N2CCC(C(=O)NC3CCCCC3)CC2)c1C | 778
Cc1ccc(NS(=O)(=O)c2cc(-c3[nH]ncc3C(=O)N3CCCC3)oc2C)c(C)c1 | 746

Structure (SMILES) | RP-LC retention time [s]
Fc1ccccc1-c1noc(N2CCOCC2)n1 | 796
COc1cccc(Cc2nc(-c3cn(-c4cccc(F)c4)nn3)no2)c1 | 993
CCC1CN2C=Nc3oc(C)c(C(=O)Nc4ccc5c(c4)OCO5)c3C2=N1 (centres undefined) | 632
CCOC(=O)c1ccc(NC(=O)N2CCC(n3c(C(F)(F)F)nc4cccnc43)CC2)cc1 | 920
CC(C)(C)C(=O)Nc1ccc2nc(N3CCN(c4ccccc4)CC3)cc(C(=O)O)c2c1 | 683
O=C(CC(=O)Nc1ccccc1Cl)Nc1ccc2nc3n(c(=O)c2c1)CCCCC3 | 772
Cc1ccc(Nc2nc(N3CCN(C(=O)c4ccco4)CC3)nc3[nH]ncc23)cc1 | 616
CCCNC(=O)N1CCCN(C2=NS(=O)(=O)C(c3ccc(CC)cc3)=C2C)CC1 | 809
CCSc1nnc(NC(=O)CSc2nnnn2-c2ccccc2CC)s1 | 887
CN(C)CCNC(=O)c1ccc(CS(=O)Cc2ccccc2Cl)o1 (centres undefined) | 597
COc1cccc(NC(=O)N2CCC(OC3CCN(S(C)(=O)=O)CC3)CC2)c1 | 731
COCCNC(=O)N1CCCC(C)(C(=O)NCc2ccccc2)C1 (centres undefined) | 639
Cc1n[nH]c(C)c1CNC(=O)C1Cn2cccc2C(=O)N1C (centres undefined) | 549
CCn1cc(CCN2CCC(C(=O)NC(C)C)CC2)c2cccnc21 | 567
COc1ccccc1CNC(=O)C1CCCN(c2nnc3ccc(Cl)cn23)C1 (centres undefined) | 683
O=C(Cc1nnc(-c2ccc3ncccc3c2)o1)NCCC1=CCCCC1 | 759
Cc1cccc(CN2C[C@@H]3C(=O)N(CCc4ccccc4)C(=O)[C@@H]3C2)c1 | 777
CSc1cccc(NC(=O)COc2cccc(-c3nnc4n3CCCC4)c2)c1 | 728
COc1cc(NC(=O)C2CCCN(c3nc4ccccc4nc3OC)C2)c(OC)cc1Cl (centres undefined) | 1290
Cc1ccccc1CC(=O)NC(C(=O)Nc1nc2ccccc2[nH]1)C(C)C (centres undefined) | 730
